# Laboratory results from ChEMBL document CHEMBL1146824, “Synthesis and evaluation of indenopyrazoles as cyclin-dependent kinase inhibitors. Part 4: Heterocycles at C3” (Bioorg Med Chem Lett, 2004).
# Key:
# [1] = Binding affinity for Cyclin-dependent kinase 4-cyclin E
# [2] = molecular target: Cyclin-dependent kinase 4/cyclin D1 (Homo sapiens, UniProt P11802); test: Binding affinity for Cyclin-dependent kinase 4-cyclin D1; assay type: protein-complex assay
# HCT-116 [3] = test: Inhibition of HCT116 cellular proliferation; assay type: functional, cell-based; settings: Homo sapiens
# HCT-116 [4] = test: Inhibition of HCT116 cell proliferation in the presence of human serum albumin and alpha-1-acidglycoprotein; assay type: functional, cell-based
# AG1523 [5] = test: Inhibition of proliferation AG1523 (human fibroblast) cell line.; assay type: functional, cell-based
# HCT-116 [6] = test: Inhibition of cellular proliferation of HCT116 cell line in the presence of human serum albumin and alpha-1-acidglycoprotein; assay type: functional, cell-based
# NCI-H358 = test: Inhibition of NCI-H358 cell proliferation; assay type: functional, cell-based; settings: Homo sapiens
# AG1523 [7] = test: Inhibition of AG1523 (arrested) cell proliferation; assay type: functional, cell-based; settings: Homo sapiens
# SKUT-1A = test: Inhibition of Skut 1A cell proliferation; assay type: functional, cell-based; settings: Homo sapiens
# NCI-H1299 = test: Inhibition of H1299 cell proliferation; assay type: functional, cell-based; settings: Homo sapiens
# [8] = molecular target: Tyrosine-protein kinase ABL1 (Homo sapiens, UniProt P00519); test: Inhibition of c-Abl tyrosine kinase
# Chain of Tyrosine-protein kinase ABL1 (P00519 whole entry): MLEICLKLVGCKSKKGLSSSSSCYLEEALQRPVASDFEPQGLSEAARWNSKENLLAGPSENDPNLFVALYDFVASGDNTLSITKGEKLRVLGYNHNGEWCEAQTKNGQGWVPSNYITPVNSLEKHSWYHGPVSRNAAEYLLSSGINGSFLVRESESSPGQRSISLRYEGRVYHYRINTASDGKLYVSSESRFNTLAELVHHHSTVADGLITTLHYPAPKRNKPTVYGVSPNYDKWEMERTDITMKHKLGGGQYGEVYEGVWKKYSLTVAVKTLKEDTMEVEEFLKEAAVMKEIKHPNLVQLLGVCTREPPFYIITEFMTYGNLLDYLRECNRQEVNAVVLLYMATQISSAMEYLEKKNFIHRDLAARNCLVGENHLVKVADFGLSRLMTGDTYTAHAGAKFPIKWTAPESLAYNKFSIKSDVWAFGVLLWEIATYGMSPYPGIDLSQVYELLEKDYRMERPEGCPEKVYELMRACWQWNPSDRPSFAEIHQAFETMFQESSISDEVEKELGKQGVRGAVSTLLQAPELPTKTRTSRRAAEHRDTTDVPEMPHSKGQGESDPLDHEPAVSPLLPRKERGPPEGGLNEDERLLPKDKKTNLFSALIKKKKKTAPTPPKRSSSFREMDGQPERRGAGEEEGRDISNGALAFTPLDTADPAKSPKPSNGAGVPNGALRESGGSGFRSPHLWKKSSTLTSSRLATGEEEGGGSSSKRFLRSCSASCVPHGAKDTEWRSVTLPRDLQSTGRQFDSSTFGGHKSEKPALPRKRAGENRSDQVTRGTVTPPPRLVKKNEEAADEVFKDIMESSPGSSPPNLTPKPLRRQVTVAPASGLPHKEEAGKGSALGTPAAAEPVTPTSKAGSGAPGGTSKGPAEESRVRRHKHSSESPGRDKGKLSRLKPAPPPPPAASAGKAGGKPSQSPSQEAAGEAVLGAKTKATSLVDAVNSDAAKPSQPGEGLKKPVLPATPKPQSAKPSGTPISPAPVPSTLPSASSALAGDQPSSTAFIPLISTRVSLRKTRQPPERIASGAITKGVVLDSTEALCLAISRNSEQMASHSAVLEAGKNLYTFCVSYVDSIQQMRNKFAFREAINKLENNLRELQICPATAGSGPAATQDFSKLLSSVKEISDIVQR
# MIA PaCa-2 = test: Inhibition of MiaPaCa2 cell proliferation; assay type: functional, cell-based; settings: Homo sapiens
# L1210 = test: Inhibition of L1210 cell proliferation; assay type: functional, cell-based; settings: Mus musculus
# PC-3 = test: Inhibition of PC3 cell proliferation; assay type: functional, cell-based; settings: Homo sapiens
# HMEC = test: Inhibition of HMEC cell proliferation; assay type: functional, cell-based; settings: Homo sapiens
# B16 = test: Inhibition of B16-F1 cell proliferation; assay type: functional, cell-based; settings: Mus musculus
# [9] = molecular target: Cyclin-dependent kinase 2/cyclin A (Homo sapiens, UniProt P24941); test: Inhibition of Cyclin-dependent kinase 2-cyclin A; assay type: protein-complex assay
# [10] = molecular target: cAMP-dependent protein kinase (PKA) (Homo sapiens, UniProt P22694+P17612+P22612); test: Inhibition of protein kinase A; assay type: protein assay
# HT-1080 = test: Inhibition of HT1080 cell proliferation; assay type: functional, cell-based; settings: Homo sapiens
# [11] = molecular target: Cyclin-dependent kinase 1/cyclin B (Homo sapiens, UniProt P06493); test: Inhibition of cyclin-dependent kinase 1-cyclin B; assay type: protein-complex assay
# HT-29 = test: Inhibition of HT-29 cell proliferation; assay type: functional, cell-based; settings: Homo sapiens
# MCF7 = test: Inhibition of MCF-7 cell proliferation; assay type: functional, cell-based; settings: Homo sapiens
# NCI-H460 = test: Inhibition of NCI-H460 cell proliferation; assay type: functional, cell-based; settings: Homo sapiens
# Chain of Cyclin-dependent kinase 4/cyclin D1 (P11802 whole entry): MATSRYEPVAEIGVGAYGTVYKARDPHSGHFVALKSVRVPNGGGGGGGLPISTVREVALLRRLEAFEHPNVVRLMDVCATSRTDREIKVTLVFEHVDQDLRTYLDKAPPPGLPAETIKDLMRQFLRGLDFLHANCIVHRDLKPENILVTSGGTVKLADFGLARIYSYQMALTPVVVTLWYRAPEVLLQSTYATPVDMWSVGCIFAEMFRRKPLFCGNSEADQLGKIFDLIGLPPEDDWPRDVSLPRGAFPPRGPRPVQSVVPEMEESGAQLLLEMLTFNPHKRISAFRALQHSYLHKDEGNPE
# Chain of Cyclin-dependent kinase 4/cyclin D1 (P24385 whole entry, further chain): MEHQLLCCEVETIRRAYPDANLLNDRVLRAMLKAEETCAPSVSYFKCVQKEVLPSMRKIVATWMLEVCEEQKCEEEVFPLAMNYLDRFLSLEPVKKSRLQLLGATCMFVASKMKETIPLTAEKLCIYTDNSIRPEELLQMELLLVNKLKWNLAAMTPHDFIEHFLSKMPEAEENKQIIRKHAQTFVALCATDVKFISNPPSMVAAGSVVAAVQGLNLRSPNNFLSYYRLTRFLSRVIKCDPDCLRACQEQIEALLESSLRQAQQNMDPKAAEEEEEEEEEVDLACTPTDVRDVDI
Compound,IC50 [1],IC50 [2],IC50 (HCT-116 [3]),IC50 (AG1523 [5]),other results
Cc1nc(C)c(-c2[nH]nc3c2C(=O)c2c(NC(=O)NN4CCOCC4)cccc2-3)s1,9 nM,> 370 nM,8 nM,> 19000 nM,IC50 (HCT-116 [4]): 500 nM
CN(C)NC(=O)Nc1cccc2c1C(=O)c1c(-c3ccco3)n[nH]c1-2,26 nM,635 nM,160 nM,–,–
CN(C)NC(=O)Nc1cccc2c1C(=O)c1c(-c3ccsc3)n[nH]c1-2,24 nM,107 nM,68 nM,605 nM,–
Cc1cc(-c2n[nH]c3c2C(=O)c2c(NC(=O)NN4CCN(C)CC4)cccc2-3)c(C)s1,12 nM,90 nM,24 nM,205 nM,–
Cc1cc(-c2n[nH]c3c2C(=O)c2c(NC(=O)NN(C)C)cccc2-3)c(C)s1,26 nM,515 nM,110 nM,1500 nM,–
NC1CCN(C(=O)c2ccc(-c3[nH]nc4c3C(=O)c3c(NC(=O)NN5CCOCC5)cccc3-4)s2)C1 (configuration not stated),39 nM,35 nM,> 800 nM,–,–
CCOC(=O)c1ccc(-c2[nH]nc3c2C(=O)c2c(NC(=O)NN4CCN(C)CC4)cccc2-3)s1,36 nM,30 nM,46 nM,–,–
CN(C)NC(=O)Nc1cccc2c1C(=O)c1c(-c3cccs3)n[nH]c1-2,36 nM,340 nM,75 nM,905 nM,–
Cc1ccc(-c2n[nH]c3c2C(=O)c2c(NC(=O)NN(C)C)cccc2-3)s1,25 nM,81 nM,48 nM,640 nM,–
CCOC(=O)c1ccc(-c2[nH]nc3c2C(=O)c2c(NC(=O)NN(C)C)cccc2-3)s1,28 nM,185 nM,380 nM,2800 nM,–
O=C(Nc1cccc2c1C(=O)c1c(-c3ccc(C(=O)NCCN4CCOCC4)s3)n[nH]c1-2)NN1CCOCC1,51 nM,86 nM,860 nM,–,–
CCOC(=O)c1ccc(-c2[nH]nc3c2C(=O)c2c(NC(=O)NN4CCOCC4)cccc2-3)s1,31 nM,30 nM,110 nM,> 17000 nM,IC50 (HCT-116 [4]): 3200 nM
Cc1nc(C)c(-c2n[nH]c3c2C(=O)c2c(NC(=O)NN(C)C)cccc2-3)s1,4 nM,150 nM,–,–,–
Cc1cc(-c2[nH]nc3c2C(=O)c2c(NC(=O)NN4CCOCC4)cccc2-3)c(C)s1,< 8 nM,125 nM,25 nM,345 nM,–
O=C(Nc1cccc2c1C(=O)c1c(-c3ccc(C(=O)NCCN4CCCC4)s3)n[nH]c1-2)NN1CCOCC1,25 nM,23 nM,475 nM,680 nM,–
Cc1nc(C)c(-c2[nH]nc3c2C(=O)c2c(NC(=O)NN4CCN(C)CC4)cccc2-3)s1,–,46 nM,14 nM,> 21000 nM,IC50 (NCI-H358): 18 nM; IC50 (HCT-116 [4]): 260 nM; IC50 (AG1523 [7]): > 21000 nM; IC50 (SKUT-1A): 25 nM; IC50 (NCI-H1299): 12 nM; IC50 [8]: 17600 nM; IC50 (MIA PaCa-2): 26 nM; IC50 (L1210): 105 nM; IC50 (PC-3): 125 nM; IC50 (HMEC): 55 nM; IC50 (B16): 160 nM; IC50 [9]: 13 nM; IC50 [10]: > 42000 nM; IC50 (HT-1080): 30 nM; IC50 [11]: 6 nM; IC50 (HT-29): 87 nM; IC50 (MCF7): 23 nM; IC50 (NCI-H460): 104 nM
COc1ccc(-c2[nH]nc3c2C(=O)c2c(NC(=O)NN(C)C)cccc2-3)s1,32 nM,84 nM,130 nM,1550 nM,–
Cc1ccc(-c2[nH]nc3c2C(=O)c2c(NC(=O)NN4CCOCC4)cccc2-3)s1,10 nM,23 nM,25 nM,285 nM,–

# Stronger by IC50 [2], values ahead:
IC50 [1],IC50 [2],IC50 (HCT-116 [3]),Compound,IC50 (AG1523 [5]),other results
21 nM,15 nM,> 800 nM,CN(C)CCNC(=O)c1ccc(-c2[nH]nc3c2C(=O)c2c(NC(=O)NN4CCOCC4)cccc2-3)s1,–,–
14 nM,7 nM,33 nM,CCN1CCCN(C(=O)c2ccc(-c3[nH]nc4c3C(=O)c3c(NC(=O)NN5CCOCC5)cccc3-4)s2)CC1,–,IC50 (HCT-116 [4]): 7100 nM
6 nM,3 nM,195 nM,O=C(Nc1cccc2c1C(=O)c1c(-c3ccc(C(=O)N4CCCNCC4)s3)n[nH]c1-2)NN1CCOCC1,–,IC50 (HCT-116 [4]): > 19700 nM
25 nM,22 nM,52 nM,O=C(Nc1cccc2c1C(=O)c1c(-c3ccc(C(=O)N4CCCCC4)s3)n[nH]c1-2)NN1CCOCC1,–,IC50 (HCT-116 [6]): 16800 nM
11 nM,5 nM,230 nM,CNC1CCN(C(=O)c2ccc(-c3[nH]nc4c3C(=O)c3c(NC(=O)NN5CCOCC5)cccc3-4)s2)C1 (configuration not stated),–,IC50 (HCT-116 [4]): 8500 nM
7 nM,21 nM,64 nM,CN(C)NC(=O)Nc1cccc2c1C(=O)c1c(-c3csc(Cl)c3)n[nH]c1-2,615 nM,–
10 nM,7 nM,35 nM,O=C(Nc1cccc2c1C(=O)c1c-2n[nH]c1-c1csc(Cl)c1)NN1CCOCC1,385 nM,–
32 nM,10 nM,110 nM,CN1CCN(C(=O)c2ccc(-c3[nH]nc4c3C(=O)c3c(NC(=O)NN5CCOCC5)cccc3-4)s2)CC1,485 nM,IC50 (HCT-116 [6]): 9940 nM
24 nM,13 nM,188 nM,CN(C)C1CCCN(C(=O)c2ccc(-c3[nH]nc4c3C(=O)c3c(NC(=O)NN5CCOCC5)cccc3-4)s2)C1 (configuration not stated),–,IC50 (HCT-116 [6]): 11800 nM
19 nM,5 nM,63 nM,CCN1CCN(C(=O)c2ccc(-c3[nH]nc4c3C(=O)c3c(NC(=O)NN5CCOCC5)cccc3-4)s2)CC1,–,IC50 (HCT-116 [6]): 14300 nM
44 nM,12 nM,64 nM,CN(C)C1CCN(C(=O)c2ccc(-c3[nH]nc4c3C(=O)c3c(NC(=O)NN5CCOCC5)cccc3-4)s2)C1 (configuration not stated),330 nM,IC50 (HCT-116 [4]): 2540 nM
23 nM,8 nM,210 nM,CN(C)C1CCN(C(=O)c2ccc(-c3[nH]nc4c3C(=O)c3c(NC(=O)NN5CCOCC5)cccc3-4)s2)CC1,1000 nM,IC50 (HCT-116 [6]): > 15100 nM
31 nM,22 nM,20 nM,O=C(Nc1cccc2c1C(=O)c1c(-c3ccc(C(=O)NCCN4CCCCC4)s3)n[nH]c1-2)NN1CCOCC1,255 nM,–
15 nM,4 nM,19 nM,CN1CCCN(C(=O)c2ccc(-c3[nH]nc4c3C(=O)c3c(NC(=O)NN5CCOCC5)cccc3-4)s2)CC1,63 nM,IC50 (HCT-116 [4]): 870 nM
23 nM,17 nM,53 nM,O=C(Nc1cccc2c1C(=O)c1c(-c3ccc(C(=O)N4CCCCCC4)s3)n[nH]c1-2)NN1CCOCC1,–,IC50 (HCT-116 [4]): 8320 nM
38 nM,4 nM,700 nM,O=C(Nc1cccc2c1C(=O)c1c(-c3ccc(C(=O)N4CCNCC4)s3)n[nH]c1-2)NN1CCOCC1,–,IC50 (HCT-116 [6]): 15400 nM
